# Experimental data reported in ChEMBL document CHEMBL3507680, “University of Dundee, Gates Library screen for HepG2 cell viability”.
# Assay: Human HepG2 cell viability assay in 384 well format
# Format: toxicity, cell-based
# Set-up: dose 125 nL, time 70.5 hour; cytotoxicity at 70.5 h: concentration not given beside the values
# Settings: HepG2 cells, read-out: Inhibition
row,Structure (SMILES),cytotoxicity at 70.5 h [%]
1,CCc1cccc(N2CCC(NC(=O)c3ccco3)CC2)c1,-3.29
2,O=C(Cc1cccnc1)N1CCCC(c2cc(C(F)(F)F)[nH]n2)C1 (centres undefined),-2.42
3,CCn1ncc2c1C(COC)CN(Cc1ccc(F)cc1)C2 (centres undefined),2.06
4,CN(C)c1ccc(C(=O)N(CCO)CC2CC2)c(F)c1,30.4
5,CCC(C(=O)NCc1nc(C)cc(C(F)(F)F)n1)n1cccn1 (centres undefined),-11.3
6,COc1ccccc1C1CCN(c2ccc3cc[nH]c3n2)CC1,-7.33
7,CN(C)c1ccc(C(=O)N2CCC(c3n[nH]c(C4CC4)n3)CC2)cc1,-6.1
8,O=C(c1ccc2c(c1)CCO2)N1CCN(c2ccc(Cl)cn2)CC1,-0.811
9,Cc1nc(N(C)C)cc(C2(C)CCNCC2)n1,-1.8
10,CC(=O)N(CCc1ccccc1)CC(=O)NC1(C#N)CC1,-0.397
11,O=C(NC1CC1)[C@@H]1C[C@@H]2CCN(Cc3ccccc3)C[C@H]2O1,-9.32
12,Cn1nc(COCC2CC2)c2c1CCN(C(=O)c1ccno1)C2,-10.9
13,O=C(N1CCCC1)N1CCO[C@H]2[C@@H](Oc3ccccn3)CC[C@@H]21,-6.73
14,COC1CCC[C@@H]2CN(Cc3csc(C)n3)C[C@H]12 (some centres undefined),-4.08
15,Cc1cnc(C(=O)N2C[C@H]3CN(Cc4cccs4)C[C@H]3C2)cn1,8.68
16,Cc1nn(CCC(=O)N(C)Cc2c(Cl)cnn2C)cc1Br,-14.9
17,CCN1CCN(C(C)CNC(=O)Nc2nc3ccccc3s2)CC1 (centres undefined),-7.3
18,CC(C)N(C)CC(=O)N1CCCC(c2ccc(C(=O)O)cc2)C1 (centres undefined),-5.3
19,O=C(C1NCCc2[nH]cnc21)N1CCC2(CC1)CNc1ccccc12 (centres undefined),-11.9
20,O=C1CCCC2=C1C(c1ccccc1Cl)Nc1nonc1N2 (centres undefined),0.0122
21,CC(C)c1nn(C)c(N(C)C)c1CNCc1ccnc(N(C)C)c1,-0.315
22,Cc1nc(CN2CCC3(CC2)C(=O)N(C)CCN3C)cs1,-4.7
23,COc1ccccc1CN(Cc1cccs1)S(=O)(=O)N(C)C(C)C,-2.73

row,Structure (SMILES),cytotoxicity at 70.5 h [%]
1,CN1CC2(CCN(C(=O)c3ccc(-n4cccn4)cc3Cl)C2)OC1=O (centres undefined),-2.7
2,COc1c(C(=O)NCC(C)C)nnn1Cc1ccccc1,-4.1
3,CCC/N=c1/c(NC(=O)NCCOC)c(O)oc2ccccc12,25.8
4,CC(C)c1nn(C)c(N(C)C)c1CNCC(O)c1ccccc1 (centres undefined),-10.1
5,CCN(CC)CC[C@H]1CN(C(=O)CC(C)(C)C)CC[C@H]1CC(=O)O,-4.24
6,Cc1cnn(C2CN(CC(O)c3ccc4c(c3)OCCO4)C2)c1 (centres undefined),-3.93
7,Cc1cc(CC(=O)N2CCc3cc(Br)sc3C2)n[nH]1,12.5
8,CCOc1cccc(NCc2cnc(N3CCN(C)CC3)nc2)n1,3.56
9,Fc1ccc(NCc2ncc[nH]2)cc1Br,-7.28
10,Cc1ccc(C)c(CSc2nnc(C(N)C(C)C)o2)c1 (centres undefined),-9.25
11,O=C(Nc1cccnc1)[C@H]1C[C@H]2OCC[C@H]2N(CC2CC2)C1,-14.8
12,O=c1cc(CN2CCCC2)nc2n1CCCN(S(=O)(=O)C1CC1)C2,-1.37
13,CSc1sc(NC(=O)C2CCCN(C(N)=O)C2)nc1C (centres undefined),-13.6
14,COc1ccc(-c2ccc(C3CNCCO3)nc2)cc1 (centres undefined),-5.61
15,Cc1cc(CN(CCO)Cc2cc(Br)ccc2F)no1,-17.4
16,O=C(CCc1ccccc1Br)NCC(=O)NCc1ccccc1,-7.06
17,Cc1ccc(C(=O)NS(=O)(=O)c2cc(Cl)ccc2Cl)c(=O)[nH]1,-1.03
18,Cc1ccc(-c2nnc(CN3CC[C@H](CO)[C@@H](O)C3)o2)n1C,-2.96
19,O=C(c1ccco1)N1CCN2C[C@H](OCc3cccnc3)C[C@H]2C1,-12.3
20,O=C(CCCn1cncn1)N1CCCC1c1noc(C2CC2)n1 (centres undefined),-3.05
21,Cc1ccnc(C2CCN(CCCOc3ccccc3F)C2)n1 (centres undefined),-1.63
22,CCOc1cccc(CNc2ccccc2C(F)(F)F)c1O,13.7
23,Cc1nc(C)c(C(=O)N2CCc3ccc(F)cc3C2C)o1 (centres undefined),-0.841

row,Structure (SMILES),cytotoxicity at 70.5 h [%]
1,Cc1cnc(N2CCCC(O)C2)nc1-c1ccnn1C (centres undefined),10.8
2,CCN(CC)S(=O)(=O)NCCc1cc(C)ccc1OC,-15.7
3,CS(=O)(=O)N1C[C@H]2CC[C@@H]1CN(Cc1ccncc1)C2,-10.9
4,Cc1nc(C(=O)N(CC(=O)N(C)C)CC(F)(F)F)c2ccccn12,-4.52
5,CC1(C(N)=O)CN(S(=O)(=O)c2cccc(F)c2)CCO1 (centres undefined),14.7
6,Cc1noc(C2CCN(C(=O)c3cc(Cl)c(Cl)n3C)CC2)n1,-2.97
7,CCCS(=O)(=O)NCC(C)(O)c1ccsc1 (centres undefined),-4.32
8,CC(NCCCC#N)c1ccc(-c2ccncc2)cc1 (centres undefined),14.3
9,COCCNC(=O)CN1CCN(c2nc3cc(C)ccc3o2)CC1,-1.86
10,CC(C)N(C)C(=O)CSCc1ccc(S(=O)(=O)N(C)C)o1,-10.8
11,CCc1ocnc1C(=O)N1CCCC1c1noc(C)n1 (centres undefined),-5.19
12,CCC(=O)NCC(Cc1cccc(F)c1)n1cccc1 (centres undefined),-7.66
13,CCn1ncc2c1CCCC2NCc1csc(COC)n1 (centres undefined),21.6
14,CC(C)c1cc(=O)[nH]c(-c2ccccc2CN2CCCC2C)n1 (centres undefined),-19.9
15,CCOc1ncccc1NC(=O)c1ccc(C)s1,-7.78
16,CC(=O)Nc1ccsc1C(=O)N1CC[C@@H]2CC[C@H](C1)N2C,-6.78
17,CC(NC(=O)Cn1ccnc1)c1ccc(OCC2CC2)c(F)c1 (centres undefined),0.552
18,F[C@@H]1CN(Cc2ccccc2)C[C@@H]1OCc1nc2cnccc2[nH]1,13.9
19,Cc1nc(CN2CCCn3c(nc(Cn4ccnc4)cc3=O)C2)cs1,-21.2
20,COc1nccc(N2CC[C@@H](N3CCN(C)CC3)[C@H](O)C2)c1C#N,-6.47
21,Cc1nc(C)n(CC2CN(Cc3cccc(C(N)=O)c3)CCO2)n1 (centres undefined),-4.7
22,CN1CCOC(CNCc2cccc(OCC(F)(F)F)c2)C1 (centres undefined),-1.74
23,CC(O)(CCc1ccccc1)CNC(=O)c1cccs1 (centres undefined),-3.94

row,Structure (SMILES),cytotoxicity at 70.5 h [%]
1,OCCn1nccc1C1CCN(CCOc2cccc(F)c2)CC1,-1.45
2,O=C(O)c1cccc(CC2CCN(c3ncc(F)cn3)CC2)c1,-9.85
3,c1ccc(-c2noc(CN3CCC(c4ccn[nH]4)CC3)n2)cc1,-14.9
4,Cc1ccccc1CCC1CCCN(C(=O)Cc2cc(=O)[nH]c(N)n2)C1 (centres undefined),10.8
5,Cc1ccccc1-n1ncc2c(=O)n(CCN3CCCCC3)cnc21,21
6,Nc1nccc(N2CCNC(C(=O)NCc3ccccn3)C2)n1 (centres undefined),10.1
7,O=C(c1ccc2[nH]cnc2c1)N1CCCC1Cn1cccn1 (centres undefined),-8.04
8,Cc1ccc(O)c(C(=O)N2CCC(CNC(=O)OC(C)(C)C)C2)c1 (centres undefined),-7.45
9,CN1CCO[C@H]2CN(C(=O)c3ccncc3F)C[C@H]21,-3.39
10,O=C1CCCN1C1CCN(S(=O)(=O)CCOc2ccc(F)cc2)CC1,23.9
11,CCN(CC)c1ncc(Cl)c(C(=O)NC2CC2)n1,-0.0542
12,O=C1CCSCC(C(=O)N2CCCCC2)N1 (centres undefined),-0.797
13,CCCS(=O)(=O)N1CC(=O)N(Cc2cccc(OC)c2OC)CC(O)C1 (centres undefined),9.04
14,O=C(NC1CCCC1)[C@@H]1CN(Cc2nccs2)C[C@H]2OCC[C@H]21,33.7
15,c1cnnc(N2CCCC2CNc2ncnc3sccc23)c1 (centres undefined),-7.82
16,CC(C)OCCS(=O)(=O)c1ccccc1C#N,11.2
17,COc1ncc(NS(=O)(=O)c2cccc(C)c2)c(OC)n1,21.8
18,Cc1nn(C)c(C)c1NC(=O)CNc1cccc(CC(F)(F)F)c1,-1.15
19,Cc1nnc([C@H]2C[C@H]3OCC[C@H]3N(S(=O)(=O)CC(C)C)C2)o1,-1.29
20,CNC(=O)C(C)(C)N1CCC[C@H]1C(=O)NCCN1CCOCC1,-6.76
21,CCC(Cn1ccnc1)n1cnc2c(C)csc2c1=O (centres undefined),-14.3
22,CCc1cc(N(C)Cc2ccncn2)n2nc(C)c(C)c2n1,-5.09
23,CCn1ccc(-c2cc(C(=O)O)n3ncc(Cl)c3n2)n1,-10.2

row,Structure (SMILES),cytotoxicity at 70.5 h [%]
1,Cn1nccc1CNC(=O)Nc1cc(C(F)(F)F)c[nH]c1=O,-7.39
2,COc1c(CNCCNC(=O)c2ccco2)c(C)nn1C,-10.7
3,COc1cccc(CN2CC[C@H](NC(C)=O)[C@@H](O)CC2)c1F,-1.47
4,Cc1sc2nc(C(F)(F)F)nc(N3CCC(NS(C)(=O)=O)CC3)c2c1C,-5.38
5,CCCc1ccc2oc(C(=O)N3CCCN(C)CC3)c(C)c2c1,-2.52
6,CCc1ncc(C(=O)N2CCCC(c3nccn3CCOC)C2)cn1 (centres undefined),-0.318
7,CC(=O)N1CCCC(c2ccnc(Nc3cnccn3)c2)C1 (centres undefined),-1.19
8,O=C(c1cc(Br)ccc1-n1cnnn1)N1CCCCC1,6.11
9,O=C(NCCN1CCCCC1)c1ccoc1,17.6
10,NC(=O)COc1ccc(CNCc2c(F)cccc2F)cc1,-3.08
11,Cc1nc(CN2CCC3(C2)CN(Cc2ccco2)C3)cs1,-3.68
12,Cc1cc(C)n2nc(C(=O)N3CCCC4(CNC(=O)O4)C3)cc2n1 (centres undefined),13.7
13,O=C(COc1ccc(F)cc1)N1CCCSCC1CN1CCOCC1 (centres undefined),5.05
14,Cc1noc(CN2C[C@H]3CC[C@@H]2CN(C2Cc4ccccc4C2)C3)n1,4.75
15,Cc1cc2n(n1)CC(CNC1CCN(C3CC3)CC1)CN2 (centres undefined),-4.14
16,Cc1ccsc1C(=O)NC(C)c1ccc2c(c1)CCC(=O)N2 (centres undefined),-1.83
17,NC(=O)CC1CC2(CCNCC2)c2cc(F)ccc21 (centres undefined),-7.94
18,CCC(O)CN(Cc1cccc(C(=O)N(C)C)c1)c1ccccc1 (centres undefined),-1.87
19,O=C(C[S+]([O-])Cc1cccc(Cl)c1)NC1CCCC1 (centres undefined),-3.67
20,O=C(c1ccc[nH]1)N1CCn2cc(CN3CCCC3)nc2C1,-8.96
21,CC(C)Nc1ncc(-c2csc(NC(=O)C[C@H]3COCCN3)n2)cn1,-10.2
22,COC(=O)c1ccc(NC(=O)CCNCc2ccco2)cc1,-7.22
